Reference: patent US8067454B2, “Thio-substituted Anthra [1, 2-d] imidazole- 6, 11-dione derivatives, preparation method and application thereof” (National Defense Medical Center, priority 2010, dated 2011)

Key:
MOLT-4 = experiment: NCI 60-cell drug screen, Leukemia MOLT-4; assay type: cell-based, human; details: 1.00E−5 Molar
RPMI-8226 = experiment: NCI 60-cell drug screen, Leukemia RPMI-8226; assay type: cell-based, human; details: 1.00E−5 Molar
A549/ATCC = experiment: NCI 60-cell drug screen, Non-Small Cell Lung Cancer A549/ATCC; assay type: cell-based, human; details: 1.00E−5 Molar
EKVX = experiment: NCI 60-cell drug screen, Non-Small Cell Lung Cancer EKVX; assay type: cell-based, human; details: 1.00E−5 Molar
HOP-62 = experiment: NCI 60-cell drug screen, Non-Small Cell Lung Cancer HOP-62; assay type: cell-based, human; details: 1.00E−5 Molar
HOP-92 = experiment: NCI 60-cell drug screen, Non-Small Cell Lung Cancer HOP-92; assay type: cell-based, human; details: 1.00E−5 Molar
HT29 = experiment: NCI 60-cell drug screen, Colon Cancer HT29; assay type: cell-based, human; details: 1.00E−5 Molar
SF-268 = experiment: NCI 60-cell drug screen, CNS Cancer SF-268; assay type: cell-based, human; details: 1.00E−5 Molar
SF-295 = experiment: NCI 60-cell drug screen, CNS Cancer SF-295; assay type: cell-based, human; details: 1.00E−5 Molar
SF-539 = experiment: NCI 60-cell drug screen, CNS Cancer SF-539; assay type: cell-based, human; details: 1.00E−5 Molar
SNB-75 = experiment: NCI 60-cell drug screen, CNS Cancer SNB-75; assay type: cell-based, human; details: 1.00E−5 Molar
MDA-MB-435 = experiment: NCI 60-cell drug screen, Melanoma MDA-MB-435; assay type: cell-based, human; details: 1.00E−5 Molar
OVCAR-3 = experiment: NCI 60-cell drug screen, Ovarian Cancer OVCAR-3; assay type: cell-based, human; details: 1.00E−5 Molar
OVCAR-5 = experiment: NCI 60-cell drug screen, Ovarian Cancer OVCAR-5; assay type: cell-based, human; details: 1.00E−5 Molar
SK-OV-3 = experiment: NCI 60-cell drug screen, Ovarian Cancer SK-OV-3; assay type: cell-based, human; details: 1.00E−5 Molar
ACHN = experiment: NCI 60-cell drug screen, Renal Cancer ACHN; assay type: cell-based, human; details: 1.00E−5 Molar
CAKI-1 = experiment: NCI 60-cell drug screen, Renal Cancer CAKI-1; assay type: cell-based, human; details: 1.00E−5 Molar
DU-145 = experiment: NCI 60-cell drug screen, Prostate Cancer DU-145; assay type: cell-based, human; details: 1.00E−5 Molar
HS 578T = experiment: NCI 60-cell drug screen, Breast Cancer HS 578T; assay type: cell-based, human; details: 1.00E−5 Molar
BT-549 = experiment: NCI 60-cell drug screen, Breast Cancer BT-549; assay type: cell-based, human; details: 1.00E−5 Molar
MDA-MB-468 = experiment: NCI 60-cell drug screen, Breast Cancer MDA-MB-468; assay type: cell-based, human; details: 1.00E−5 Molar
[1] = test system: 60 kinds of different human cancer cells; experiment: NCI 60-cell drug screen, whole panel (One Dose Mean Graph); assay type: cell-based; details: mean over the cell lines of the panel; 1.00E−5 Molar
GBM8401 = experiment: MTT assay, GBM8401 tumor cell; details: for Cell survival rate (%) GBM8401: concentration 10 μM, tumor cell
GBM8901 = experiment: MTT assay, GBM8901 tumor cell; details: for Cell survival rate (%) GBM8901: concentration 10 μM, tumor cell
[2] = test system: SVG p12, GBM8401 and GBM8901; experiment: MTT assay, normal cell versus tumor cells (categories 39-3 to 39-7); details: tumor cell survival rate less than 80%
[3] = test system: telomerase (total cell lysates of lung cancer cell line H1299); experiment: Telomeric Repeat Amplification Protocol (TRAP) assay, screen of telomerase inhibitors; assay type: biochemical, human; details: 10 μM
Description: Telomeric Repeat Amplification Protocol (TRAP) Assay:
Telomerase activity was detected by a modified version of the general TRAP protocol. Telomerase products were resolved by 10% polyacrylamide gel electrophoresis and visualized by staining with SYBER Green. As a source of telomerase, the total cell lysates derived from lung cancer cell line H1299 cells were used. Protein concentration of the lysates was assayed using Bio-Rad protein assay kit using BSA standards.
In the TRAP assay, if a compound can stabilize the G-quadruplex structure such that telomerase can not act on telomere, then the effect of inhibiting the telomerase can be achieved. In the FIG. 2A to FIG. 2C, DMSO treatment represents as the positive control group (P); while a negative control group (N) used 5 μl of 0.1 mg/ml RNase A (CLONTECH) in the assay. It could be observed that a number of telomeric fragments were detected in the positive control group (P), while none was detected in the negative control group (N). 10 μM was selected as the concentration used to screen compounds.

SMILES	Growth Percent, MOLT-4 (MOLT-4) [%]	Growth Percent, RPMI-8226 (RPMI-8226) [%]	Growth Percent, A549/ATCC (A549/ATCC) [%]	Growth Percent, EKVX (EKVX) [%]	Growth Percent, HOP-62 (HOP-62) [%]	Growth Percent, HOP-92 (HOP-92) [%]	Growth Percent, HT29 (HT29) [%]	Growth Percent, SF-268 (SF-268) [%]	Growth Percent, SF-295 (SF-295) [%]	Growth Percent, SF-539 (SF-539) [%]	Growth Percent, SNB-75 (SNB-75) [%]	Growth Percent, MDA-MB-435 (MDA-MB-435) [%]	Growth Percent, OVCAR-5 (OVCAR-5) [%]	Growth Percent, SK-OV-3 (SK-OV-3) [%]	Growth Percent, ACHN (ACHN) [%]	Growth Percent, DU-145 (DU-145) [%]	Growth Percent, BT-549 (BT-549) [%]	Growth Percent, Mean [1] [%]	Cell survival rate (%) GBM8401 (GBM8401) [%]	Cell survival rate (%) GBM8901 (GBM8901) [%]	also measured
O=C1c2ccccc2C(=O)c2c1ccc1nc(S)[nH]c21 [f1-0, 2-Mercapto-1(3)H-anthra[1,2-d]imidazole-6,11-dione]	108.60	101.22	118.18	50.53	96.74	65.48	103.79	90.30	118.09	91.35	100.90	114.02	129.22	103.17	96.23	99.28	114.30	99.72	86 ± 25	78 ± 13	Growth Percent, OVCAR-3 (OVCAR-3): 86.94%; Growth Percent, CAKI-1 (CAKI-1): 91.23%; Growth Percent, HS 578T (HS 578T): 103.53%; Growth Percent, MDA-MB-468 (MDA-MB-468): 87.69%
CCCSc1nc2ccc3c(c2[nH]1)C(=O)c1ccccc1C3=O [f1-2, 2-(propylthio)-1H-anthra[1,2-d]imidazole-6,11-dione]	68.13	71.75	59.15	76.83	59.09	17.25	75.10	47.81	37.25	23.99	−9.55	77.38	99.67	38.92	27.16	69.29	76.00	60.02	62 ± 18	62 ± 7	Growth Percent, OVCAR-3 (OVCAR-3): 62.71%; Growth Percent, CAKI-1 (CAKI-1): 45.47%; Growth Percent, HS 578T (HS 578T): 33.33%; category 39-3: survival rate higher than 80% for normal cell SVG p12 and inhibits growth of both tumor cells GBM8401 and GBM8901 ([2]; FIG. 5A): in this category
O=C1c2ccccc2C(=O)c2c1ccc1nc(SCCN3CCCC3)[nH]c21 [f1-11]	30.94	−60.17	35.52	73.04	73.74	35.17		42.04	76.91	62.25	81.75	66.47	87.49	55.57	34.58	17.91	78.62	52.08	78 ± 10	18 ± 2	Growth Percent, MDA-MB-468 (MDA-MB-468): 67.90%; category 39-5: survival rate higher than 80% for normal cell SVG p12 and only inhibits growth of tumor cell GBM8901 ([2]; FIG. 5C): in this category
CN(C)CCCSc1nc2ccc3c(c2[nH]1)C(=O)c1ccccc1C3=O [f1-15, 2-(3-(dimethylamino)propylthio)-1H-anthra[1,2-d]imidazole-6,11-dione]	−2.90	−13.69	51.59	65.23	51.96	15.99	17.84	53.13	76.03	57.50	50.54	72.18	87.88	32.36	24.30	36.35	75.75	47.41	8 ± 11	63 ± 4	Growth Percent, OVCAR-3 (OVCAR-3): 59.33%; Growth Percent, CAKI-1 (CAKI-1): −14.89%; Growth Percent, HS 578T (HS 578T): 69.32%
O=C1c2ccccc2C(=O)c2c1ccc1nc3n(c21)CCS3 [f3-1, 2-(2-N-ethylthio)-1H-anthra[1,2-d]imidazole-6,11-dione]	58.39	71.65	81.15	35.80	85.26	88.67		56.15	78.56	74.06	95.57	83.11	105.31	87.43	59.35	68.84	87.90	75.99	42 ± 16	37 ± 4	inhibition effect against telomerase [3]: exhibited inhibition effect against telomerase; Growth Percent, MDA-MB-468 (MDA-MB-468): 69.68%; inhibitory effect against tumor cell GBM8401 (GBM8401; survival rate less than 80%): exhibited inhibitory effect against tumor cell GBM8401; inhibitory effect against tumor cell GBM8901 (GBM8901; survival rate less than 80%): exhibited inhibitory effect against tumor cell GBM8901
